Laboratory results published in US20040235855A1, “Phospholipase C inhibitors for use in treating inflammatory disorders” (priority 2003, published 2004).

Target: T1, human PLC-β2 (Homo sapiens, UniProt Q00722)
T1 construct: made in house; host or cells: Sf9 cells (Spodoptera frugiperda), recombinant baculovirus
Assay: PLC assay using FlashPlates (96-well, immobilized [3H]PIP2 substrate)
Format: biochemical
Conditions: purified recombinant human PLC-β2 or cytosolic human PLC-β2; hydrolysis of [3H]PIP2
Excerpt: The hydrolysis of phosphatidylinositol-4,5-bisphosphate (PIP2) by a specific phospholipase C-β2 (PLC-β2) produces two intracellular messengers, diacylglycerol (DAG) and inositol 1,4,5-trisphosphate (IP3), which mediate the activation of protein kinase C and intracellular Ca^2+ release. A conventional organic solvent extraction method is widely used for PLC assays to isolate IP3 from the substrate PIP2. The conventional PLC-β2 assay, however is terminated by addition of acidified organic solvents and subsequent extraction and phase separation. […] Accordingly, a preferred method to test the compounds of the present invention, was developed utilizing a 96-well plate assay for PLC-β2 using immobilized radiolabeled substrate to quantitatively measure the reduction in the substrate level without a need for organic solvent extraction. The automated PLC-β2 assay described herein provides a convenient method for quantitative measurement of phospholipase C activities in a high throughput fashion. Ninety-six well Phospholipid FlashPlates were coated with 0.2 mL of 50 mM Tris/HCl (pH 7.4), 0.01% Ac-BSA and 50,000 cpm of […] (phosphatidylinositol-4,5-bisphosphate) at 4° C. for 72 h. The wells were aspirated and washed twice with PBS. The reactions were conducted directly in the wells in PLC reaction buffer containing 50 mM Tris/HCl (pH 7.2), 2.75 mM EDTA (pH 7.3), 80 mM KCl, 10 mM LiCl, 0.04% DOC and 2 mM CaCl2 in the absence or presence of the purified recombinant human PLC-β2 (prepared as described hereafter) or cytosolic human PLC-β2 from […]. Reduction of radioactivity was monitored by a Packard TopCount instrument (Packard Instrument Company, Conn., USA). […] The cells were grown in Grace's media supplemented with 10% (v/v) fetal bovine serum, 3.3 g/l yeastolate, 3.3 g/l lactalbumin hydrosylate, glutamine (6.4 mM final), 50 μg/ml gentamicin, and 50 μg/ml kanamycin. Suspension of Sf9 cells (1.0×10^6 cells/ml) were infected with 5 pfu/cell of recombinant baculovirus encoding PLC-β2 and incubated at 27° C. for 72 h. The cells were collected by centrifugation (500×g, 7 min, 4° C.) and disrupted by hypotonic lysis buffer containing 20 mM Tris/HCl, pH 7.4, 5 mM MgCl2, 2 mM EGTA, 200 μM PMSF, 200 μM benzamidine and 1 μM pepstatin A. The lysate was sonicated on ice and the nuclei and unbroken cells removed by centrifigation (500×g, 5 min, 4C.). The supernatant was recovered and clarified by centrifugation (34,000 rpm, 60 min, 4C.). The supernatant was used as a crude cytosolic fraction (Paterson, A., Boyer, J. L., Watts, V. J., Morris, A. J., Price, […]. (1995) Concentration of enzyme-dependent activation of PLC β1 and PLC β2 by Gα11 and βγ subunits. Cellular Signalling 7, 709-720). Crude cytosol prepared from Sf9 cells expressing PLC-β2 was purified initially by chromatography on a 10 ml column of Q-Sepharose FF, equilibrated in buffer A (25 mM HEPES, pH 7.2,2 mM DTT, 2 mM EDTA, 2 mM EGTA, 200 μM PMSF, 200 μM benzamidine, 1 μM pepstatin A containing 10 mM NaCl). The column was washed with 20 ml of equilibration buffer and eluted with a 200-ml gradient of 110-410 mM NaCl in buffer A. The fractions containing PLC activity were pooled and diluted with buffer A. The diluted enzyme was applied to a 4 ml column of heparin-SepharoseCL-6B equilibrated in buffer A and the column washed with 70 ml of buffer A. The column was eluted with 80 ml of gradient of 0-1.0 M NaCl in buffer A, the column eluate collected in 3 ml fractions. […]

T1 sequence (Q00722 whole entry): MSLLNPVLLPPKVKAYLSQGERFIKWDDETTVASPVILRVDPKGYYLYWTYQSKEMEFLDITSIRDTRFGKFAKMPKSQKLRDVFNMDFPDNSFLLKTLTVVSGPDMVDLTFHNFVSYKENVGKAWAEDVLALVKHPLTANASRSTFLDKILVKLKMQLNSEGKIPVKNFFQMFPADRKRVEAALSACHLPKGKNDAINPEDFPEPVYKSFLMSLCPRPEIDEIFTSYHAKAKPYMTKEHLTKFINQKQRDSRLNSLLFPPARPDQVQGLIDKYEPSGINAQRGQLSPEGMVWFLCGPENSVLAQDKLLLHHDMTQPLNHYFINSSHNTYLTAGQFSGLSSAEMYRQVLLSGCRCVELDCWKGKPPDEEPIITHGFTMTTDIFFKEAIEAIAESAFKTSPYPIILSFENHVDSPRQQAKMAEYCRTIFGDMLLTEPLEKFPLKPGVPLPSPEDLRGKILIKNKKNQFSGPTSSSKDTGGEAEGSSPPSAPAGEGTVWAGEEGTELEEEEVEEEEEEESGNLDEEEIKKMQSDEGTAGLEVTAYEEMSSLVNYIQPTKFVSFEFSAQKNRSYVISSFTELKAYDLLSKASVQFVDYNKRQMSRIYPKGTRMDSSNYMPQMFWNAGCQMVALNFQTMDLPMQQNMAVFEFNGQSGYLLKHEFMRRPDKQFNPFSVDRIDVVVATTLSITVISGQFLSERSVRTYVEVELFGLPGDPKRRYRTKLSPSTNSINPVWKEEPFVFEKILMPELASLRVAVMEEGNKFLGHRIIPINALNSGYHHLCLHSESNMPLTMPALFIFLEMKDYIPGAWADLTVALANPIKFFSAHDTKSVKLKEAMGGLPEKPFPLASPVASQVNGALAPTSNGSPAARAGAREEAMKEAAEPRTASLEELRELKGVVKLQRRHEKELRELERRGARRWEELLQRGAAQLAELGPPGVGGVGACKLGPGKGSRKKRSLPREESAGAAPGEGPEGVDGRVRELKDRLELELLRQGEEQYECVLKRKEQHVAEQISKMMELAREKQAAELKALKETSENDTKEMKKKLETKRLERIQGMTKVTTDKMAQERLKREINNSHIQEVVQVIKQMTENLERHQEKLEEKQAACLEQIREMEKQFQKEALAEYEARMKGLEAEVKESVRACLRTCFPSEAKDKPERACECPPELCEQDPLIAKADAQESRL

SMILES: O=C(c1ccc(N2CCN(C(c3ccccc3)c3ccccc3)CC2)c(NC(=S)NCc2ccccc2)c1)N1CCNCC1 [Cpd 65, N-[2-[4-(diphenylmethyl)-1-piperazinyl]-5-(1-piperazinylcarbonyl)phenyl]-N′-(phenylmethyl)thiourea]
- IC50: 6.2 µM

SMILES: O=C(Nc1ccccc1)Nc1ccc(C(=O)N2CCNCC2)cc1N1CCCN(C(c2ccc(F)cc2)c2ccc(F)cc2)CC1 [Cpd 89, N-[2-[4-[bis(4-fluorophenyl)methyl]hexahydro-1H-1,4-diazepin-1-yl]-4-(1-piperazinylcarbonyl)phenyl]-N′-phenyl-urea]
- IC50: 0.81 µM

SMILES: Cc1cc(C)cc(NC(=O)Nc2cc(C(N)=O)ccc2N2CCN(C(c3ccccc3)c3ccccc3)CC2)c1 [Cpd 7, 3-[[[(3,5-dimethylphenyl)amino]carbonyl]amino]-4-[4-(diphenylmethyl)-1-piperazinyl]-benzamide]
- IC50: 5.3 µM

SMILES: O=C(Nc1cc(C(=O)N2CCNCC2)ccc1N1CCN(C2CCCCC2)CC1)NC1CCCCC1 [Cpd 54, N-cyclohexyl-N′-[2-(4-cyclohexyl-1-piperazinyl)-5-(1-piperazinylcarbonyl)phenyl]-urea]
- IC50: > 25 µM

SMILES: Cc1ccc(NC(=O)Nc2cc(C(=O)N3CCNCC3)ccc2N2CCN(C(c3ccccc3)c3ccccc3)CC2)c(C)c1 [Cpd 41, N-(2,4-dimethylphenyl)-N′-[2-[4-(diphenylmethyl)-1-piperazinyl]-5-(1-piperazinylcarbonyl)phenyl]-urea]
- IC50: 1.6 µM

SMILES: CC(C)(C)NC(=O)Nc1cc(C(=O)N2CCNCC2)ccc1N1CCN(C(c2ccccc2)c2ccccc2)CC1 [Cpd 62, N-(1,1-dimethylethyl)-N′-[2-[4-(diphenylmethyl)-1-piperazinyl]-5-(1-piperazinylcarbonyl)phenyl]-urea]
- IC50: > 25 µM

SMILES: O=C(NC(=S)Nc1cc(C(=O)N2CCNCC2)ccc1N1CCN(C(c2ccccc2)c2ccccc2)CC1)c1ccc(Cl)cc1 [Cpd 67, N-(4-chlorobenzoyl)-N′-[2-[4-(diphenylmethyl)-1-piperazinyl]-5-(1-piperazinylcarbonyl)phenyl]-thiourea]
- IC50: 3.4 µM

SMILES: COc1ccccc1NC(=O)Nc1cc(C(=O)N2CCNCC2)ccc1N1CCN(C(c2ccccc2)c2ccccc2)CC1 [Cpd 59, N-[2-[4-(diphenylmethyl)-1-piperazinyl]-5-(1-piperazinylcarbonyl)phenyl]-N′-(2-methoxyphenyl)-urea]
- IC50: 5.4 µM

SMILES: NC(=O)c1ccc(N2CCCN(C(c3ccncc3)c3ccc(F)cc3)CC2)c(NC(=O)NC2CCCCC2)c1 (centres unmarked) [Cpd 80, 3-[[(cyclohexylamino)carbonyl]amino]-4-[4-[(4-fluorophenyl)-4-pyridinylmethyl]hexahydro-1H-1,4-diazepin-1-yl]-benzamide]
- IC50: > 10 µM

SMILES: NC(=O)c1ccc(N2CCN(C(c3ccccc3)c3ccccc3)CC2)c(NC(=O)Nc2ccccc2)c1 [Cpd 8, 4-[4-(diphenylmethyl)-1-piperazinyl]-3-[[(phenylamino)carbonyl]amino]-benzamide]
- IC50: 1.2 µM

SMILES: O=C(NCc1ccccc1)Nc1cc(C(=O)N2CCNCC2)ccc1N1CCN(C(c2ccccc2)c2ccccc2)CC1 [Cpd 39, N-[2-[4-(diphenylmethyl)-1-piperazinyl]-5-(1-piperazinylcarbonyl)phenyl]-N′-(phenylmethyl)urea]
- IC50: 4.2 µM

SMILES: CN(C)CCNC(=O)c1ccc(N2CCN(C(c3ccccc3)c3ccccc3)CC2)c(NC(=O)Nc2ccccc2)c1 [Cpd 29, N-[2-(dimethylamino)ethyl]-4-[4-(diphenylmethyl)-1-piperazinyl]-3-[[(phenylamino)carbonyl]amino]-benzamide]
- IC50: 3.3 µM

SMILES: NCCNC(=O)c1ccc(N2CCN(C(c3ccccc3)c3ccccc3)CC2)c(NC(=O)Nc2ccccc2)c1 [Cpd 26, N-(2-aminoethyl)-4-[4-(diphenylmethyl)-1-piperazinyl]-3-[[(phenylamino)carbonyl]amino]-benzamide]
- IC50: 1.9 µM

SMILES: O=C(Nc1ccccc1F)Nc1cc(C(=O)N2CCNCC2)ccc1N1CCN(C(c2ccccc2)c2ccccc2)CC1 [Cpd 57, N-[2-[4-(diphenylmethyl)-1-piperazinyl]-5-(1-piperazinylcarbonyl)phenyl]-N′-(2-fluorophenyl)urea]
- IC50: 2.5 µM

SMILES: NC(=O)c1ccc(N2CCN(C(c3ccc(F)cc3)c3ccc(F)cc3)CC2)c(NC(=O)Nc2ccc3c(c2)OCO3)c1 [Cpd 14, 3-[[(1,3-benzodioxol-5-ylamino)carbonyl]amino]-4-[4-[bis(4-fluorophenyl)methyl]-1-piperazinyl]-benzamide]
- IC50: 3.1 µM

SMILES: COc1ccc(NC(=O)Nc2cc(C(N)=O)ccc2N2CCN(C(c3ccc(F)cc3)c3ccc(F)cc3)CC2)c(OC)c1 [Cpd 18, 4-[4-[bis(4-fluorophenyl)methyl]-1-piperazinyl]-3-[[[(2,4-dimethoxyphenyl)amino]carbonyl]amino]-benzamide]
- IC50: 4.6 µM

SMILES: O=C(Nc1ccccc1)Nc1cc(C(=O)N2CCNCC2)ccc1N1CCN(C(c2ccccc2)c2ccc(Cl)cc2)CC1 (centres unmarked) [Cpd 60, N-[2-[4-[(4-chlorophenyl)phenylmethyl]-1-piperazinyl]-5-(1-piperazinylcarbonyl)phenyl]-N′-phenyl-urea]
- IC50: 0.95 µM

SMILES: NC(=O)c1ccc(N2CCCN(C(c3ccc(F)cc3)c3ccc(F)cc3)CC2)c(NC(=O)Nc2ccccc2)c1 [Cpd 81, 4-[4-[bis(4-fluorophenyl)methyl]hexahydro-1H-1,4-diazepin-1-yl]-3-[[(phenylamino)carbonyl]amino]-benzamide]
- IC50: ~10 µM

SMILES: COc1ccccc1N1CCN(c2ccc(C(=O)N3CCNCC3)cc2NC(=O)Nc2ccccc2)CC1 [Cpd 49, N-[2-[4-(2-methoxyphenyl)-1-piperazinyl]-5-(1-piperazinylcarbonyl)phenyl]-N′-phenylurea]
- IC50: > 25 µM

SMILES: O=C(Nc1ccccc1)Nc1cc(C(=O)N2CCCNCC2)ccc1N1CCN(C(c2ccccc2)c2ccccc2)CC1 [Cpd 24, N-[2-[4-(diphenylmethyl)-1-piperazinyl]-5-[(hexahydro-1H-1,4-diazepin-1-yl)carbonyl]phenyl]-N′-phenylurea]
- IC50: 0.87 µM

SMILES: COc1ccccc1NC(=O)Nc1cc(C(N)=O)ccc1N1CCN(C(c2ccc(F)cc2)c2ccc(F)cc2)CC1 [Cpd 17, 4-[4-[bis(4-fluorophenyl)methyl]-1-piperazinyl]-3-[[[(2-methoxyphenyl)amino]carbonyl]amino]-benzamide]
- IC50: 2.8 µM

SMILES: CC(c1ccccc1)N1CCN(c2ccc(C(=O)N3CCNCC3)cc2NC(=O)NC2CCCCC2)CC1 (centres unmarked) [Cpd 53, N-cyclohexyl-N′-[2-[4-(1-phenylethyl)-1-piperazinyl]-5-(1-piperazinylcarbonyl)phenyl]-urea]
- IC50: > 25 µM

SMILES: CC(c1ccccc1)N1CCN(c2ccc(C(=O)N3CCNCC3)cc2NC(=O)Nc2ccccc2)CC1 (centres unmarked) [Cpd 48, N-phenyl-N′-[2-[4-(1-phenylethyl)-1-piperazinyl]-5-(1-piperazinylcarbonyl)phenyl]-urea]
- IC50: > 25 µM

SMILES: O=C(/C=C/c1ccccc1)NC(=O)Nc1cc(C(=O)N2CCNCC2)ccc1N1CCN(C(c2ccccc2)c2ccccc2)CC1 [Cpd 61, N-[2-[4-(diphenylmethyl)-1-piperazinyl]-5-(1-piperazinylcarbonyl)phenyl]-N′-[(2E)-1-oxo-3-phenyl-2-propenyl]-urea]
- IC50: 4.3 µM

SMILES: CC(NC(=O)Nc1cc(C(N)=O)ccc1N1CCN(C(c2ccc(F)cc2)c2ccc(F)cc2)CC1)c1ccccc1 (centres unmarked) [Cpd 16, 4-[4-[bis(4-fluorophenyl)methyl]-1-piperazinyl]-3-[[[(1-phenylethyl)amino]carbonyl]amino]-benzamide]
- IC50: 6 µM

SMILES: COc1ccc(NC(=O)Nc2cc(C(=O)N3CCNCC3)ccc2N2CCN(C(c3ccccc3)c3ccccc3)CC2)cc1 [Cpd 43, N-[2-[4-(diphenylmethyl)-1-piperazinyl]-5-(1-piperazinylcarbonyl)phenyl]-N′-(4-methoxyphenyl)urea]
- IC50: 5.7 µM
